The text below walks through data of patent US20100184809A1, “Heterocyclic FXR Binding Compounds” (PHENEX PHARMACEUTICALS AG, priority 2006, published 2010).

≈ marks a conversion by molar mass, not a printed value. Some results are limits rather than exact numbers.

The target of data set [1] is T1, human FXRalpha ligand binding domain (LBD) (Homo sapiens, UniProt Q96RI1).
T1 construct: made in house; host or cells: E. coli BL21(DE3), vector pDEST15
T1 sequence (Q96RI1 187-472 isoform Q96RI1-2): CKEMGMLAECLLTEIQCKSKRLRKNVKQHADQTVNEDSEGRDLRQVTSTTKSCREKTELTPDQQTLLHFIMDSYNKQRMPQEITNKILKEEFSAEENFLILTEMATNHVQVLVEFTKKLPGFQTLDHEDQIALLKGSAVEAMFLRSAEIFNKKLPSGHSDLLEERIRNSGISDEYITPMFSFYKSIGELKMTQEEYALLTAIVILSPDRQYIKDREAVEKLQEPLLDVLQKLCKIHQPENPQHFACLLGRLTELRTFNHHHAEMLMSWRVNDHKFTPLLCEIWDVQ
The experiment in a line: FRET activity assay (ligand mediated cofactor peptide interaction, LANCE). It counts as biochemical. The note with it: GST-FXR-LBD / biotinylated SRC-1 peptide (676-700). The procedure: Determination of a ligand mediated cofactor peptide interaction to quantify ligand binding to the nuclear receptor Farnesoid X Receptor (FXR) was performed as follows:
Preparation of human farnesoid X receptor (FXR) alpha ligand binding domain: The human FXRalpha ligand binding domain (LBD) was expressed in E. coli strain BL21(DE3) as an N-terminally glutathione-[…] (GST) tagged fusion protein. The DNA encoding the FXR ligand binding domain was cloned into vector pDEST15 (Invitrogen). Expression was under control of an IPTG inducible T7 promoter. The amino acid boundaries of the ligand binding domain were amino acids 187-472 of Database entry NM_005123 (RefSeq). Expression and purification of the FXR-LBD: An overnight preculture of a transformed E. coli strain was diluted 1:20 in LB-Ampicillin medium and grown at 30° C. to an optical density of OD600=0.4-0.6. Gene expression was then induced by addition of 0.5 mM IPTG. Cells were incubated an additional 6 h at 30° C., 180 rpm. Cells were collected by centrifugation (7000×g, 7 min, room temperature). Per liter of original cell culture, cells were resuspended in 10 ml lysis buffer (50 mM Glucose, 50 mM Tris pH 7.9, 1 mM EDTA and 4 mg/ml lysozyme) and left on ice for 30 min. Cells were then subjected to sonication and cell debris removed via centrifugation (22000×g, 30 min, 4° C.). Per 10 ml of supernatant 0.5 ml prewashed Glutathione 4B sepharose slurry (Qiagen) was added and the suspension kept slowly rotating for 1 h at 4° C. Glutathione 4B sepharose beads were pelleted by centrifugation (2000 g, 15 sec, 4° C.) and washed twice in wash buffer (25 mM Tris, 50 mM KCl, 4 mM MgCl2 and 1M NaCl). The pellet was resuspended in 3 ml elution buffer per liter of original culture (elution buffer: 20 mM Tris, 60 mM KCl, 5 mM MgCl2 and 80 mM glutathione added immediately prior to use as powder). The suspension was left rotating for 15 min at 4° C., the beads pelleted and eluted again with half the volume of elution buffer than the first time. The eluates were pooled and dialysed overnight in 20 mM Hepes buffer (pH 7.5) containing 60 mM KCl, 5 mM MgCl2 as well as 1 mM dithiothreitol and 10% (v/v) glycerol. The protein was analysed by SDS-Page.
The method measures the ability of putative ligands to modulate the interaction between the purified bacterial expressed FXR ligand binding domain (LBD) and a synthetic biotinylated peptide based on residues 676-700 of SRC-1 (LCD2, 676-700). The sequence of the peptide used was B-[…]-COOH where the N-terminus was biotinylated (B). The ligand binding domain (LBD) of FXR was expressed as fusion protein with GST in BL-21 cells using the vector pDEST15. Cells were lysed by sonication, and the fusion proteins purified over glutathione sepharose (Pharmacia) according to the manufacturers instructions. For screening of compounds for their influence on the FXR-peptide interaction, the Perkin Elmer LANCE technology was applied. This method relies on the binding dependent energy transfer from a donor to an acceptor fluorophor attached to the binding partner of interest. For ease of handling and reduction of background from compound fluorescence LANCE technology makes use of generic fluorophore labels and time resolved detection Assays were done in a final volume of 2 5 μl in a 384 well plate, in a Tris-based buffer (20 mM Tris-HCl pH 7,5; 60 mM KCl, 5 mM MgCl2; 35 ng/μl BSA), containing 20-60 ng/well recombinantly expressed FXR-LBD fused to GST, 200-600 nM N-terminally biotinylated peptide, representing SRC1 aminoacids 676-700, 200 ng/well Streptavidin-xIAPC conjugate(Prozyme) and 6-10 ng/well Eu W1024 antiGST (Perkin Elmer). DMSO content of the samples was kept at 1%. After generation of the assay mix and diluting the potentially FXR modulating ligands, the assay was equilibrated for one hour in the dark at room temperature in FIA-plates black 384 well (Greiner). […]
A general note: Time-resolved FRET reads energy transfer from a long-lived donor to a nearby acceptor.

Data set [2] can be described thus: Rat microsomal stability assay. The note with it: liver microsomes, 37° C., NADPH, 45 minute, read-out: Rat liver microsome clearance. It counts as in vitro ADME. The method, then:
Compound stability towards rat liver microsomes was determined as follows: The microsomes are incubated with the test compound at 37° C. in the presence of the co-factor, NADPH, which initiates the reaction. The reaction is terminated by the addition of methanol. Following centrifugation, the supernatant is analysed on the LC-MS/MS. The disappearance of test compound is monitored over a 45 minute time period. The In peak area ratio (compound peak area/internal standard peak area) is plotted against time and the gradient of the line determined. Finally, Intrinsic clearance CLint is computed by the following equations: elimination rate konstant (k)=−gradient; t1/2 (min)=0.693/k; V (μl/mg)=volume of incubation (μl)/protein in incubation (mg); CLint (μl/min/mg protein)=V*0.693/t1/2.
(In general: Liver microsomes are vesicles of endoplasmic reticulum, rich in cytochrome P450 enzymes.)

A further data set can be described thus: Caco-2 permeability. In kind it is in vitro ADME. The note with it: human, apical to basolateral. The method, then:
Caco-2 cells are widely used as an in vitro model for predicting human drug absorption. The Caco-2 cell line is derived from a human colorectal carcinoma, and when cultured, the cells spontaneously differentiate into monolayers of polarised enterocytes. The cells are seeded on Transwell™ plates and form a confluent monolayer over 20 days prior to the experiment. On day 20, the test compound is added to the apical side of the membrane and the transport of the compound across the monolayer is monitored over a 2 hour time period. To study drug efflux, it is also necessary to investigate transport of the compound from the basolateral compartment to the apical compartment. The permeability coefficient (Papp) is calculated from the following equation: […]
Where dQ/dt is the rate of permeation of the drug across the cells, CO is the donor compartment concentration at time zero and A is the area of the cell monolayer.
Background: Caco-2 cells form a polarised layer with tight junctions and transporters.

Data set [3] can be described thus: Plasma protein binding assay (equilibrium dialysis). In kind it is in vitro ADME. The following applies: 37° C., extrapolated fraction unbound. The procedure: Equilibrium dialysis is used to determine the extent of binding of a compound to plasma proteins. A semi-permeable membrane separates a protein-containing compartment from a protein-free compartment. The system is allowed to equilibrate at 37° C. The test compound present in each compartment is quantified by LC-MS/MS. The extent of binding is reported as a fraction unbound (fu) value which is calculated as fu=1−(PC−PF)/PC. PC=Test compound concentration in protein-containing compartment. PF=Test compound concentration in protein-free compartment. In addition to using whole plasma, the plasma protein binding assay can be performed using two other ratios of plasma (10% or 50% plasma in buffer v/v). The following equations are used to convert from a fraction unbound at 10% or 50% to a fraction unbound at 100%: […]

Data set [4] can be described thus: Aqueous solubility assay, Protocol A, nephelometry method. In kind it is physicochemical. The note with it: PBS with 5% DMSO, aqueous with cosolvent or surfactant or cyclodextrin, kinetic from dmso stock, PBS pH 7.4, 5% DMSO, 23° C., 24 hours, read-out: Aqueous solubility pH 7.4. The procedure: Aqueous solubility of compounds was determined by nephelometry or by the shake-flask method as follows:
Protocol A, nephelometry method:
Solubility of compounds was measured in PBS (pH 7.4), 5% DMSO at 23° C. Nepheloskan Ascent (Thermo Electron Corporation) nephelometer was used for measurement of light scattering. Tested compounds were dissolved in DMSO to 10 mM. Prior to measurement the compounds were further diluted with PBS in the wells to final compound concentrations of 100, 70, 50, 35, 25, 17, 12 and <10 μg/ml.
The plates were incubated at room temperature for 24 hours to reach equilibrium and the scattered light was measured. Assay validation: Aqueous solubility of acetylsalicylic acid was determined to validate the assay.
The following compounds of Table 2 exemplify such solubility with “−−” meaning solubility<2 μM, “+” meaning 2 μM solubility 100 μM and “++” meaning solubility

As a reminder, the melting point is the temperature of the solid-liquid transition. Usually IC50 stands for the concentration that inhibits the measured activity by half. Read a low IC50 as higher potency. In the case of `CC(C)c1nnn(-c2c(Cl)cccc2Cl)c1COc1ccc(N(C)C(=O)c2ccc(C(=O)O)cc2)c(C(F)(F)F)n1` [Example 29, 4-((6-((1-(2,6-Dichlorophenyl)-4-isopropyl-1H-1,2,3-triazol-5-yl)methoxy)-2-(trifluoromethyl)pyridin-3-yl)(methyl)carbamoyl)benzoic acid], the melting point fell in the range of 218 to 219 °C. The same compound returned an IC50 in data set [1] of at most 1000 nM.

As to `Cc1nc(OCc2c(C(C)C)nnn2-c2c(Cl)cccc2Cl)ccc1N(C)S(=O)(=O)c1ccc(C(=O)O)cc1` [Example 30, 4-(N-(6-((1-(2,6-dichlorophenyl)-4-isopropyl-1H-1,2,3-triazol-5-yl)methoxy)-2-methylpyridin-3-yl)-N-methylsulfamoyl)benzoic acid], the melting point is 127.8 to 128.8 °C. The same compound yielded an IC50 in data set [1] of at most 1000 nM.

For `Cc1cc(OCc2c(-c3c(Cl)cccc3Cl)noc2C(C)C)cnc1N(C)C(=O)c1ccc(C(=O)O)cc1` [Example 26, 4-((5-((3-(2,6-dichlorophenyl)-5-isopropylisoxazol-4-yl)methoxy)-3-methylpyridin-2-yl)(methyl)carbamoyl)benzoic acid], the concentration for half-maximal inhibition (IC50) in data set [1] was in the range of 1000 to 10000 nM. Moreover, the microsomal CLint in data set [2] was 55 µL/min/mg.

A word on the Papp A→B: it is how fast a substance crosses the layer from the apical side. Read a high Papp A→B as ready permeation. Usually fraction unbound stands for free concentration divided by total concentration. For `CC(C)c1onc(-c2c(Cl)cccc2Cl)c1COc1ccc(N(C)C(=O)c2ccc(C(=O)N(C)C)cc2)c(C(F)(F)F)n1` [Example 24], the melting point is 166.8 to 167.8 °C. Besides, the Papp A→B at 2 h in the data set “Caco-2 permeability” came out at 46 ×10⁻⁶ cm/s. Further, in data set [1], the concentration for half-maximal inhibition (IC50) is at most 1000 nM. Also, the unbound share (fraction unbound) in data set [3] was 0.0009.

For orientation: solubility means the dissolved amount per volume that the medium holds. Take `CC(C)c1onc(-c2c(Cl)cccc2Cl)c1COc1ccc(N(C)C(=O)c2ccc(C(N)=O)cc2)c(C(F)(F)F)n1` [Example 23, N^1-(6-((3-(2,6-Dichlorophenyl)-5-isopropylisoxazol-4-yl)methoxy)-2-(trifluoromethyl)pyridin-3-yl)-N^1-methylterephthalamide]: the melting point is 229 °C (dec.). The IC50 in data set [1] is at most 1000 nM. Moreover, the solubility at 24 h in data set [4] is 2 to 100 µM (≈ 1.21 to 60.7 µg/mL).

Consider `CC(C)c1onc(-c2c(Cl)cccc2Cl)c1COc1ccc(NCc2ccc(C(=O)O)cc2)c(C(F)(F)F)n1` [Example 27, 4-((6-((3-(2,6-Dichlorophenyl)-5-isopropylisoxazol-4-yl)methoxy)-2-(trifluoromethyl)pyridin-3-ylamino)methyl)benzoic acid], for which the melting point lay in the range of 259.1 to 260.1 °C. In data set [1], this compound gave an IC50 of at most 1000 nM.

Compound `Cc1onc(-c2c(Cl)cccc2Cl)c1COc1ccc(NC(=O)c2cccc(C(=O)O)c2)cn1` [Example 15, 3-(6-((3-(2,6-dichlorophenyl)-5-methylisoxazol-4-yl)methoxy)pyridin-3-ylcarbamoyl)benzoic acid] returned an IC50 in data set [1] of 1000 to 10000 nM. Besides, the fraction unbound in data set [3] was 0.0003. For the same compound, the microsomal CLint in data set [2] was 149 µL/min/mg.

In the data set “Caco-2 permeability”, `Cc1onc(-c2c(Cl)cccc2Cl)c1COc1ccc(NC(=O)c2cccc(C(=O)O)c2)cc1` [Compound C, reference compound] gave an apical-to-basolateral permeability (Papp A→B) at 2 h of 0.6 ×10⁻⁶ cm/s. In data set [3], the free fraction (fraction unbound) was 0.0001.

In turn, `Cc1nc(OCc2c(-c3c(Cl)cccc3Cl)noc2C(C)C)ccc1NC(=O)c1ccc(C(=O)O)cc1` [Example 1, N-{6[3-(2,6-dichloro-phenyl)-5-isopropyl-isoxazol-4-ylmethoxy]-2-methyl-pyridin-3-yl}-terephthalamic acid] showed an IC50 in data set [1] of at most 1000 nM.

`CC(C)c1onc(-c2c(Cl)cccc2Cl)c1COc1ccc(NC(=O)c2cccc(C(=O)O)c2)c(C(F)(F)F)n1` [Example 21] yielded a melting point of 153.8 to 154.8 °C. For the same compound, the 50% inhibitory concentration (IC50) in data set [1] was at most 1000 nM. In addition, the solubility at 24 h in data set [4] is above 100 µM.

In the case of `Cc1cc(OCc2c(-c3c(Cl)cccc3Cl)noc2C(C)C)cnc1NC(=O)c1ccc(C(=O)O)cc1` [Example 19, N-(5-[3-(2,6-Dichloro-phenyl)-5-isopropyl-isoxazol-4-ylmethoxy]-3-methyl-pyridin-2-yl)-terephthalamic acid], the melting point came out at 218 °C. For the same compound, the IC50 in data set [1] was at most 1000 nM. Besides, the fraction unbound in data set [3] is 0.003. Moreover, in data set [2], the microsomal CLint was 57 µL/min/mg.

With `Cc1onc(-c2c(Cl)cccc2Cl)c1COc1ccc(NS(=O)(=O)c2ccc(C(=O)O)cc2)cn1` [Example 18, 4-(N-(6-((3-(2,6-dichlorophenyl)-5-methylisoxazol-4-yl)methoxy)pyridin-3-yl)sulfamoyl)benzoic acid], the IC50 in data set [1] fell in the range of 1000 to 10000 nM.
